Data set [1] deals with T1, Tyrosine-protein phosphatase non-receptor type 1 (Homo sapiens, UniProt P18031).
T1 sequence (P18031 whole entry): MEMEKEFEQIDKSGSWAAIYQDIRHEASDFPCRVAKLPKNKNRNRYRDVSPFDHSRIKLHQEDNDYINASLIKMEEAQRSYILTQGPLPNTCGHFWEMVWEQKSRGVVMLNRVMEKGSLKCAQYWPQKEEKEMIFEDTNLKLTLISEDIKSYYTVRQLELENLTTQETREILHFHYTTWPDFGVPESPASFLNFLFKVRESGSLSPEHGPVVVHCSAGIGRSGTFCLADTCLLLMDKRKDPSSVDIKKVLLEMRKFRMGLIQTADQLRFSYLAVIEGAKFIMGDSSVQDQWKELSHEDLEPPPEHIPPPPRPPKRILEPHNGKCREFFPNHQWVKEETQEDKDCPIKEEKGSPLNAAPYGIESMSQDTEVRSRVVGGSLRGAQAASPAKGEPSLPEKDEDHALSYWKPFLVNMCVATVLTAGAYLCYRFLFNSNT
Description: Inhibition of PTP1B by fluorescein diphosphate assay.

For data set [2], the target named is T2, Receptor-type tyrosine-protein phosphatase C (Homo sapiens, UniProt P08575).
T2 sequence (P08575 whole entry): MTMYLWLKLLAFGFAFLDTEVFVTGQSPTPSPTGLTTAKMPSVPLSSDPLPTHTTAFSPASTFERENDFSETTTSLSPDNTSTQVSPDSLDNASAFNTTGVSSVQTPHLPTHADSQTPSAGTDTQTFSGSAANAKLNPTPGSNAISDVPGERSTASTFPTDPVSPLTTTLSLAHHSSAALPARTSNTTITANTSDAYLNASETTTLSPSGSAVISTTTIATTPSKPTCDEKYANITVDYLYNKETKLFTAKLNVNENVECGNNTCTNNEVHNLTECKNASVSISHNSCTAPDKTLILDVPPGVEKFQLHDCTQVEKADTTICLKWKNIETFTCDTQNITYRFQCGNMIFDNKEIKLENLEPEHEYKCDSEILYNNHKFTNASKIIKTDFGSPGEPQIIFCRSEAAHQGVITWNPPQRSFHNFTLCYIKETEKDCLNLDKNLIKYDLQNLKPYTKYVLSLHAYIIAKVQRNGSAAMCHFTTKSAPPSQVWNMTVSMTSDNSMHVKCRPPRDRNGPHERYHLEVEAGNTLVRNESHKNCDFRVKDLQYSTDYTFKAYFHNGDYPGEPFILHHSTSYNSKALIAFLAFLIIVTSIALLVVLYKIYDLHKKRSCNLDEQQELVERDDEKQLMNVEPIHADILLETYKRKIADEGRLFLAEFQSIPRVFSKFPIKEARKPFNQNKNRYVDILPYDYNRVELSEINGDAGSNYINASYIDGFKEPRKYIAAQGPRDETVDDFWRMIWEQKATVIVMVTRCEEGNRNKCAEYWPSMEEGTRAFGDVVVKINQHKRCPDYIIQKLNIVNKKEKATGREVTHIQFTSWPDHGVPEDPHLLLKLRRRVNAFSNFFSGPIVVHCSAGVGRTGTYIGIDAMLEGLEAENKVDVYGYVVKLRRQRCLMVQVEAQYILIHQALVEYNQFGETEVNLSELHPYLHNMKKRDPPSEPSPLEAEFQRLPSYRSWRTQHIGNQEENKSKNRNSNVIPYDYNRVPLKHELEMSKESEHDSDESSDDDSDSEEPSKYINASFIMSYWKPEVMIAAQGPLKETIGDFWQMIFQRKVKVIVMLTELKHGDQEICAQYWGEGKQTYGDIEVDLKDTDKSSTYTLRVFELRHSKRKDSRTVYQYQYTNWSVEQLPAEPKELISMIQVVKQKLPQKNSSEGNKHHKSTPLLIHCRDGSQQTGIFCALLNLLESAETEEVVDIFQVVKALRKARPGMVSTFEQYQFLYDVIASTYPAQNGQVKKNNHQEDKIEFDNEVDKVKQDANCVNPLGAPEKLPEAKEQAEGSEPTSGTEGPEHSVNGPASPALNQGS
The data set is described as follows: Inhibition of CD45 by fluorescein diphosphate assay.

Data set [3] can be described thus: Cmax in mouse plasma at 20 mg/kg, po after 2 hrs. In kind it is ADME, organism-based. Set-up: dose 20 mg/kg, route oral.
The nature of data set [4]: Oral bioavailability in DIO mouse at 5 mg/kg, iv and 20 mg/kg, po. In kind it is ADME, organism-based. The conditions noted are these: in vivo.
Data set [5] can be described thus: Elimination half life in DIO mouse at 5 mg/kg, iv and 20 mg/kg, po. It counts as ADME, organism-based. The conditions noted are these: in vivo.
A short description of data set [6]: Clearance in DIO mouse at 5 mg/kg, iv and 20 mg/kg, po. In kind it is ADME, organism-based. The conditions noted are these: in vivo.
Data set [7] can be described thus: Cmax in DIO mouse at 5 mg/kg, iv and 20 mg/kg, po. It counts as ADME, organism-based. Conditions: in vivo.
A short description of data set [8]: Drug level in DIO mouse at 5 mg/kg, iv and 20 mg/kg, po after 24 hrs. It counts as ADME, organism-based. The conditions noted are these: in vivo, read-out: Drug uptake.
Data set [9] can be described thus: Oral bioavailability in rat at 5 mg/kg, iv and 20 mg/kg, po. In kind it is ADME, organism-based. The conditions noted are these: in vivo.
Data set [10] is described as follows: Elimination half life in rat at 5 mg/kg, iv and 20 mg/kg, po. Conditions: in vivo. In kind it is ADME, organism-based.
The nature of data set [11]: Clearance in rat at 5 mg/kg, iv and 20 mg/kg, po. Conditions: in vivo. It counts as ADME, organism-based.
The nature of data set [12]: Cmax in rat at 5 mg/kg, iv and 20 mg/kg, po. It counts as ADME, organism-based. Conditions: in vivo.
Data set [13] in a line: Drug level in rat at 5 mg/kg, iv and 20 mg/kg, po after 24 hrs. In kind it is ADME, organism-based. Conditions: in vivo, read-out: Drug uptake.
Data set [14] is described as follows: Oral bioavailability in Squirrel monkey at 5 mg/kg, iv and 10 mg/kg, po. It counts as ADME, organism-based, Saimiri sciureus. The conditions noted are these: in vivo.
Data set [15] is described as follows: Elimination half life in Squirrel monkey at 5 mg/kg, iv and 10 mg/kg, po. In kind it is ADME, organism-based, Saimiri sciureus. Conditions: in vivo.
Data set [16] is described as follows: Clearance in Squirrel monkey at 5 mg/kg, iv and 10 mg/kg, po. Conditions: in vivo. In kind it is ADME, organism-based, Saimiri sciureus.
Data set [17] is described as follows: Cmax in Squirrel monkey at 5 mg/kg, iv and 10 mg/kg, po. Conditions: in vivo. It counts as ADME, organism-based, Saimiri sciureus.
Data set [18] can be described thus: Drug level in Squirrel monkey at 5 mg/kg, iv and 10 mg/kg, po after 24 hrs. It counts as ADME, organism-based, Saimiri sciureus. The conditions noted are these: in vivo, read-out: Drug uptake.
Data set [19] relates to Mus musculus. Description: Inhibition of glucose excursion in DIO mouse glucose challenged 2 hrs before the test at 1 mg/kg by oral glucose tolerance test. It counts as functional.
Data set [20] deals with Mus musculus. Description: Inhibition of glucose excursion in DIO mouse glucose challenged 2 hrs before the test at 3 mg/kg by oral glucose tolerance test. It counts as functional.
Data set [21] concerns Mus musculus. The data set is described as follows: Inhibition of glucose excursion in DIO mouse glucose challenged 2 hrs before the test at 10 mg/kg by oral glucose tolerance test. In kind it is functional.
For data set [22], the species on record is Mus musculus. Description: Inhibition of glucose excursion in DIO mouse glucose challenged 2 hrs before the oral glucose tolerance test. In kind it is functional.
Data set [23] can be described thus: Cmax in C57BL/6 mouse plasma at 10 mg/kg. In kind it is ADME, organism-based. Set-up: dose 10 mg/kg.
Data set [24] is described as follows: Oral bioavailability in rat. It counts as ADME, organism-based. The conditions noted are these: in vivo.
The nature of data set [25]: Cmax in rat plasma at 20 mg/kg. In kind it is ADME, organism-based. Also on record: dose 20 mg/kg.
Data set [26] is described as follows: Elimination half life in rat plasma. In kind it is ADME, organism-based.

Where only a bound is given, the exact number is not on record here.

Turning to `COCc1ccc2cc(Br)c(C(F)(F)P(=O)(O)O)cc2c1`, the IC50 was 510 nM in data set [1] and over 50000 nM in [2].

As to `N#CCc1ccc2cc(Br)c(C(F)(F)P(=O)(O)O)cc2c1`, the IC50 in data set [1] came to 90 nM; in [2] it was 26800 nM. In data set [3], this compound yielded a Cmax of 6 µM.

Turning to `CC(=O)NCc1ccc2cc(Br)c(C(F)(F)P(=O)(O)O)cc2c1`, the results for the 50% inhibitory concentration (IC50) in [1] and in data set [2] were 1500 nM and over 50000 nM, respectively.

Take `CS(=O)(=O)Cc1ccc2cc(Br)c(C(F)(F)P(=O)(O)O)cc2c1`: the IC50 in data set [1] is 1300 nM; in [2], over 50000 nM.

`N#Cc1ccc2cc(Br)c(C(F)(F)P(=O)(O)O)cc2c1` displayed an IC50 in data set [2] of over 50000 nM. For the same compound, the bioavailability in [4] was found to be 24%; in [9], 4%; in [14], 2%. For the same compound, the results for the half-life in [5], in [10] and in data set [15] were 6 h, over 17 h and over 30 h, respectively. Moreover, the clearance in [6] is 42.6 mL/h/kg; in data set [11] it was 1.8 mL/h/kg; in data set [16] it was 1.2 mL/h/kg. The values for the peak concentration (Cmax) in [7], in [12] and in data set [17] were 17.4 µM, 75.6 µM and 24 µM, respectively. The results for the concentration at 24 h in data set [8], in [13] and in data set [18] were 9 µM, 45.3 µM and 19 µM, respectively. In data set [19], this compound had an inhibition in vivo at 1 mg/kg of 60%. Moreover, in data set [20], the inhibition in vivo at 3 mg/kg was 80%. This compound also gave an inhibition in vivo at 10 mg/kg in data set [21] of 100%. For the same compound, the ED50 in data set [22] came to 0.8 mg/kg.

For `Cc1ccc2ccc(C(F)(F)P(=O)(O)O)cc2n1`, the 50% inhibitory concentration (IC50) in data set [1] and in data set [2] was over 50000 nM each time.

As for `N#Cc1ccc2cc(C(F)(F)P(=O)(O)O)c(Br)cc2c1`, the results for the IC50 in data set [1] and in data set [2] were 310 nM and over 50000 nM, respectively.

On to `NC(=O)c1ccc2cc(Br)c(C(F)(F)P(=O)(O)O)cc2n1`, for which the IC50 is 250 nM in data set [1] and over 50000 nM in data set [2]. The highest concentration (Cmax) in data set [23] worked out at 0.3 µM.

The compound `O=P(O)(O)C(F)(F)c1cc2ccccc2cc1Br` showed an inhibitory constant (Ki) in data set [1] of 179000 nM.

In the case of `O=C(NCc1ccccc1)c1ccc2cc(Br)c(C(F)(F)P(=O)(O)O)cc2n1`, the half-inhibitory concentration (IC50) in data set [1] was 45 nM; in data set [2], over 50000 nM.

Turning to `O=C(Nc1cccc(F)c1)c1ccc2cc(Br)c(C(F)(F)P(=O)(O)O)cc2n1`, the 50% inhibitory concentration (IC50) is 27 nM in [1] and over 50000 nM in data set [2].

For the compound `O=C(Nc1ccccc1)c1ccc2cc(Br)c(C(F)(F)P(=O)(O)O)cc2n1`, the concentration for half-maximal inhibition (IC50) in data set [1] was 60 nM; in [2], over 50000 nM.

For the compound `O=P(O)(O)C(F)(F)c1cc2nc(/C=C/c3ccccc3)ccc2cc1Br`, the half-inhibitory concentration (IC50) in [1] was 160 nM; in data set [2], over 50000 nM.

For `Cc1ccc2cc(Br)c(C(F)(F)P(=O)(O)O)cc2n1`, the 50% inhibitory concentration (IC50) in [1] was 14000 nM; in data set [2] it was over 50000 nM. For the same compound, the bioavailability in data set [24] was determined as 5%. This compound also had a Cmax in data set [25] of 43.3 µM. For the same compound, in data set [26], the half-life is over 8 h.

Consider `CNC(=O)c1ccc2cc(Br)c(C(F)(F)P(=O)(O)O)cc2n1`, for which the values for the IC50 in [1] and in data set [2] were 1260 nM and over 50000 nM, respectively.

As to `Cc1ccc2cc(Br)c(C(F)(F)P(=O)(O)O)cc2c1`, the IC50 in data set [1] is 330 nM; in data set [2] it was over 50000 nM.

On to `CC(Cc1ccc(C(F)(F)P(=O)(O)O)cc1)(c1ccccc1)n1nnc2ccccc21` (centres undefined), for which the IC50 was determined as 16 nM in data set [1] and 50000 nM in [2].

Consider `O=C(O)c1cccc(/C=C/c2ccc3cc(Br)c(C(F)(F)P(=O)(O)O)cc3n2)c1`, for which the concentration for half-maximal inhibition (IC50) in [1] came to 7 nM; in data set [2], 37800 nM.

In [2], `O=C(c1ccccc1)C(Cc1ccc(C(F)(F)P(=O)(O)O)c(Br)c1)c1ccccc1` (centres undefined) registered a half-maximal inhibitory concentration (IC50) of over 50000 nM.

As a reminder, the IC50 is the concentration needed to halve the response being measured. What is called Cmax is the maximum level reached in the sampled fluid or tissue. Broadly, the bioavailability is dose-corrected exposure relative to a reference, in per cent. One may read the half-life as the time in which the quantity being followed falls by half. As a reminder, the inhibition in vivo is the relative decrease from the control value, in per cent. Usually ED50 stands for the dose at which the effect has come halfway, by size or by number of responders. Usually Ki stands for the dissociation constant of the complex between target and ligand, obtained from inhibition or displacement.
